Consider three compounds from publication PMC9581852, “Organic Cation Transporter-Mediated Accumulation of Quinolinium Salts in the LV Myocardium of Rodents” (Molecular Imaging and Biology, 2022).

What all share (assay type): cell-based
Assay [1] has as its target T1, hOCT2 (organic cation transporter 2) (Homo sapiens, UniProt O15244).
T1 construct: gene SLC22A2
T1 sequence (O15244 1-555): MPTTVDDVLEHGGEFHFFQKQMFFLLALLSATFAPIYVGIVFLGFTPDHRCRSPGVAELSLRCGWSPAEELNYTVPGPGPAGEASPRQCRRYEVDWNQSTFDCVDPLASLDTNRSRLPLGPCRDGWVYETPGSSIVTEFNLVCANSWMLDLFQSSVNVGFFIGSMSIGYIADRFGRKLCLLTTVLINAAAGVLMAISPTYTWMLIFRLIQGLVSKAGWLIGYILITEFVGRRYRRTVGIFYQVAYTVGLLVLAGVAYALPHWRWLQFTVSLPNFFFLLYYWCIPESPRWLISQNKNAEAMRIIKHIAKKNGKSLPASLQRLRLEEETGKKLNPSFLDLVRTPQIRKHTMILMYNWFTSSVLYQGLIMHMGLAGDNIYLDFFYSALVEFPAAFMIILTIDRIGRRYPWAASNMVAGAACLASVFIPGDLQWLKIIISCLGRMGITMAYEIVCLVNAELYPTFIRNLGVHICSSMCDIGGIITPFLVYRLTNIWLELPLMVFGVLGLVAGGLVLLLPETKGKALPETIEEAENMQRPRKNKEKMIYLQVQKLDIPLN
Kind of assay: in vivo PET/CT blocking of […]FEtQ uptake in HEK-hOCT2 xenografts in mice.

The target of assay [2] is T2, hOCT3 (organic cation transporter 3) (Homo sapiens, UniProt O75751).
T2 construct: gene SLC22A3
T2 sequence (O75751 1-556): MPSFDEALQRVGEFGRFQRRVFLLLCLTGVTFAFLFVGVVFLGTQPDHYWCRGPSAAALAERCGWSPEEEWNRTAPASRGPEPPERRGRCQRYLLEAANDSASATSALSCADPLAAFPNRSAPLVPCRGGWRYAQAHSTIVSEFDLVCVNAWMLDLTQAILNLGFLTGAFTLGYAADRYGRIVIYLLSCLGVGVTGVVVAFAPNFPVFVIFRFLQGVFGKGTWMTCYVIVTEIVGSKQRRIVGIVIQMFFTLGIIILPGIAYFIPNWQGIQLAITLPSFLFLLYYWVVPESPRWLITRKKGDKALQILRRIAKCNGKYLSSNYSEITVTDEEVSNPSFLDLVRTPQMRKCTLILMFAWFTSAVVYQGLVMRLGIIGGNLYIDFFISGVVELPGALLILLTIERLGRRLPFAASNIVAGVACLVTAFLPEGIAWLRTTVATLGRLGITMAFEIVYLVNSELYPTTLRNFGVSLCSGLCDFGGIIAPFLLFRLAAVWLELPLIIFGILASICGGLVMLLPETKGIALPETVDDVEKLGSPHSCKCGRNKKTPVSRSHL
Put plainly: radioligand saturation binding/uptake in intact HEK293-hOCT3 cells, empty-vector cells as non-specific binding.

In assay [3] the target is T2, hOCT3 (organic cation transporter 3). Put plainly: inhibition of […]FEtQ uptake in HEK293 cells stably expressing hOCT3.

`CCN1/C(=C/c2ccc3ccccc3[n+]2CC)C=Cc2ccccc21` [decynium 22]: the “% lower peak tumor uptake at 0.075 mg/kg” value in assay [1] is recorded as 40 % lower peak tumor uptake at 0.075 mg/kg.
One may read the Kd as the free concentration of one partner at which half of the binding sites on the other are occupied at equilibrium, for simple one-to-one binding. Low readings indicate higher affinity, high ones lower affinity. Turning to `FCC[n+]1cccc2ccccc21` [[18F]FEtQ], binding in assay [2] was characterised by a dissociation constant (Kd) of 214 ± 114 µM.
For orientation: IC50 means the point on the concentration scale where inhibition reaches its midpoint. For the compound `C[C@]12C[C@H](O)[C@H]3[C@@H](CCC4=CC(=O)CC[C@@]43C)[C@@H]1CC[C@@H]2C(=O)CO` [corticosterone], the IC50 in assay [3] lay in the range of 0.05 to 0.5 µM.
